# Test results as given in US9062043B2, “Fused tricyclic compounds as serine-threonine protein kinase and PARP modulators” (SENHWA BIOSCIENCES, INC., priority 2006, dated 2015).
# pIC50: −log10 of the molar value.
# Biological target: PARP (Homo sapiens (Human), UniProt P09874)
# Test: PARP assay (chemiluminescent PARP assay kit, Trevigen)
# Format: biochemical
# Conditions: 1 uM; Table 12; read-out: PARP % inhib @ 1 uM
# Description: Modulatory activity of compounds described herein was assessed in vitro in cell-free CK2 assays. Modulatory activity of compounds described herein also are assessed in vitro in cell-free PARP assays. These assays are described hereafter.
# PARP assays are conducted using a chemiluminescent PARP assay kit (Trevigen). Briefly, reactions are performed in Histone-coated strip wells, by adding 10 microliters test compound dissolved in 1×PARP Buffer (prepared by mixing 20×PARP buffer diluted with high-purity water) and 15 microliters diluted PARP-HSA enzyme (diluted in 1× PARP buffer, 0.1 unit per well) to 25 microliters PARP cocktail (prepared from 10×PARP cocktail and 10× activated DNA, both 2.5 microliters per well and 20 microliters per well of 1×PARP buffer). The reactions are incubated at ambient temperature for 60 minutes, then the liquid was removed. After washing the wells four times with PBS (200 ul), 50 microliters of STREP-HRP (Horseradish Peroxidase) solution (diluted 500-fold in 1× Strep-Diluent) was added and the reactions were allowed to incubate for 30 minutes at ambient temperature. The liquid was removed and, after washing the wells four times with PBS (200 ul), 50 microliters each of PeroxyGlo A and B (Chemiluminescent Horseradish Peroxidase substrates) are added and the resulting chemiluminescence quantified on the SpectraMax M5 plate reader.
# Chain of PARP (P09874 whole entry): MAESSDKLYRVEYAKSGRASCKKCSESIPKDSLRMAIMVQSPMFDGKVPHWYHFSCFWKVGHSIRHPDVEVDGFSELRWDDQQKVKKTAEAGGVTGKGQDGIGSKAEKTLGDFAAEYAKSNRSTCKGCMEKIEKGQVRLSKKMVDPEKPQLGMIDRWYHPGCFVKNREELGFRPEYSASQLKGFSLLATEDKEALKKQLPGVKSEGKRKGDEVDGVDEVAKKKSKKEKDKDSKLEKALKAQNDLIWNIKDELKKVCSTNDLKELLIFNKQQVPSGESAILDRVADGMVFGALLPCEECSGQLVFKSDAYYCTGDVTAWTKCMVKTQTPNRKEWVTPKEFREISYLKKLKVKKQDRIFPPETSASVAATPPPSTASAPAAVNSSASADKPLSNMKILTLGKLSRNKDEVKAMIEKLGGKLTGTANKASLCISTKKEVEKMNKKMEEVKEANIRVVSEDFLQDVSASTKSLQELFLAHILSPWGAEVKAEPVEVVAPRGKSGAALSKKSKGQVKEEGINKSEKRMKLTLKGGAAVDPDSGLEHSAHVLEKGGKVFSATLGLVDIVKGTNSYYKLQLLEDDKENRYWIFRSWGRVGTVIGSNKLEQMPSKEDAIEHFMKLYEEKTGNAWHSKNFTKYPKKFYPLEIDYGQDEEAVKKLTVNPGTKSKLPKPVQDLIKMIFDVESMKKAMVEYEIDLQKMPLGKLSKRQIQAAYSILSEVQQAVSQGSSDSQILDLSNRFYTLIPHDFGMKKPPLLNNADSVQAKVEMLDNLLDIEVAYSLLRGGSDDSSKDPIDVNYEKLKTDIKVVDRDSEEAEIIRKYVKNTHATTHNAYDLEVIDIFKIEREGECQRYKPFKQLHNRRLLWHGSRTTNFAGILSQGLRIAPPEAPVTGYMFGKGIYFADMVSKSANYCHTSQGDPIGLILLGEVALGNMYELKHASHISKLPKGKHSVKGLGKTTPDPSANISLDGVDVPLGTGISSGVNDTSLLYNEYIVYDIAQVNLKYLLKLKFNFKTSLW
row,inhibition at 1 µM [%],SMILES
1,71,O=C(NCc1cccnc1)c1ccc2c(c1)[nH]c(=O)c1ccsc12
2,58,O=C(O)c1ccc2c(c1)[nH]c(=O)c1ccsc12
3,79,NC(=O)c1ccc2c(c1)[nH]c(=O)c1ccsc12
4,65,COCCNC(=O)c1ccc2c(c1)[nH]c(=O)c1ccsc12
5,64,O=C(NCCc1ccccc1)c1ccc2c(c1)[nH]c(=O)c1ccsc12
6,35,O=C(O)CCNC(=O)c1ccc2c(c1)[nH]c(=O)c1ccsc12
7,0,O=C(Nc1ccc(N2CCOCC2)cc1)c1ccc2c(c1)[nH]c(=O)c1ccsc12
8,12,O=C(Nc1ccccc1C(=O)O)c1ccc2c(c1)[nH]c(=O)c1ccsc12
9,0,O=C(Nc1ccc(Cl)cc1)c1ccc2c(c1)[nH]c(=O)c1ccsc12
10,89,CN(C)C(=O)c1ccc2c(c1)[nH]c(=O)c1ccsc12
11,15,COc1ccc(CCNC(=O)c2ccc3c(c2)[nH]c(=O)c2ccsc23)cc1OC
12,65,CCCNC(=O)c1ccc2c(c1)[nH]c(=O)c1ccsc12
13,0,O=C(Nc1cccnc1)c1ccc2c(c1)[nH]c(=O)c1ccsc12
14,75,O=C(NCc1ccncc1)c1ccc2c(c1)[nH]c(=O)c1ccsc12

# The next lines start with the compound.
row,SMILES,inhibition at 1 µM [%]
1,O=C(O)c1ccc2c3sccc3c(=O)n(CCCO)c2c1,21
2,COC(=O)c1ccc2c(c1)nc(Cl)c1ccsc12 [drawing 552],18
3,O=C(O)c1ccc2c(c1)[nH]c(=O)c1cc(Br)sc12,39

# Same assay, conditions: 20 uM; Table 12; read-out: PARP % inhib @ 20 uM
row,inhibition at 20 µM [%],SMILES
1,90,O=C(O)c1ccc2c(c1)[nH]c(=O)c1ccsc12
2,93,COCCNC(=O)c1ccc2c(c1)[nH]c(=O)c1ccsc12
3,95,O=C(O)CCNC(=O)c1ccc2c(c1)[nH]c(=O)c1ccsc12
4,37,O=C(Nc1ccc(N2CCOCC2)cc1)c1ccc2c(c1)[nH]c(=O)c1ccsc12
5,55,O=C(Nc1ccc(Cl)cc1)c1ccc2c(c1)[nH]c(=O)c1ccsc12
6,85,CN(C)CCNC(=O)c1ccc2c(c1)[nH]c(=O)c1ccsc12
7,97,CN(C)C(=O)c1ccc2c(c1)[nH]c(=O)c1ccsc12
8,67,COc1ccc(CCNC(=O)c2ccc3c(c2)[nH]c(=O)c2ccsc23)cc1OC
9,88,CCCNC(=O)c1ccc2c(c1)[nH]c(=O)c1ccsc12
10,62,O=C(Nc1cccnc1)c1ccc2c(c1)[nH]c(=O)c1ccsc12
11,84,O=C(O)c1ccc2c(c1)[nH]c(=O)c1cc(Br)sc12

# Same assay, conditions: Table 12
row,pIC50,SMILES
1,6.00,O=C(O)c1ccc2c(c1)[nH]c(=O)c1ccsc12
2,7.22,NC(=O)c1ccc2c(c1)[nH]c(=O)c1ccsc12
3,6.40,COCCNC(=O)c1ccc2c(c1)[nH]c(=O)c1ccsc12
4,6.30,O=C(NCCc1ccccc1)c1ccc2c(c1)[nH]c(=O)c1ccsc12
5,6.70,CN(C)C(=O)c1ccc2c(c1)[nH]c(=O)c1ccsc12
6,6.00,CCCNC(=O)c1ccc2c(c1)[nH]c(=O)c1ccsc12
7,6.00,O=C(NCc1ccncc1)c1ccc2c(c1)[nH]c(=O)c1ccsc12

# Same assay, conditions: at 1 μM; Table 10; read-out: PARP Inhibition %
row,SMILES,inhibition at 1 µM [%]
1,O=C(O)c1ccc2c(c1)nc(Nc1ccccc1)c1ccccc12,9
2,O=c1c2ccccc2c2ccc(-c3nnn[nH]3)cc2n1CCCO,33

# System: HCT-116 human colorectal carcinoma cells
# Test: Cell proliferation assay, Alamar Blue, HCT-116;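 further: cells exposed to compound for about 4 days, then Alamar Blue added and fluorescence read after about 4 h, medium-only wells as control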
# Format: cell-based
# Conditions: HCT-116, Table 16, first HCT-116 column
row,pIC50,SMILES
1,< 5.00,O=C(O)c1ccc2c(c1)nc(Nc1ccc(F)c(Cl)c1)c1ccsc12
2,< 5.00,COc1cccc(Nc2nc3cc(C(=O)O)ccc3c3sccc23)c1

# Same assay, conditions: HCT-116, Table 16, second HCT-116 column
row,pIC50,SMILES
1,< 5.00,CCc1cccc(Nc2nc3cc(C(=O)O)ccc3c3sccc23)c1
2,< 5.00,O=C(NCc1cccnc1)c1cccc(Nc2nc3cc(-c4nnn[nH]4)ccc3c3sccc23)c1
3,< 5.00,CNC(=O)Cc1cccc(Nc2nc3cc(C(=O)O)ccc3c3sccc23)c1

# Further lines, the compound ahead of its results:
row,SMILES,pIC50
1,Brc1cccc(Nc2nc3cc(-c4nnn[nH]4)ccc3c3sccc23)c1,< 5.00
2,O=C(O)c1ccc2c(c1)nc(Nc1cccc(I)c1)c1ccsc12,< 5.00
3,CN(C)C(=O)c1cccc(Nc2nc3cc(-c4nnn[nH]4)ccc3c3sccc23)c1,< 5.00
4,O=C(O)c1ccc2c(c1)nc(Nc1ccc3[nH]ccc3c1)c1ccsc12,< 5.00
5,C#Cc1cccc(Nc2nc3cc(-c4nnn[nH]4)ccc3c3sccc23)c1,< 5.00

# System: MiaPaca human pancreatic carcinoma cells
# Test: Cell proliferation assay, Alamar Blue, MiaPaca
# Format: cell-based
# Conditions: MIA PaCa-2, Table 16
# Description: A representative cell-proliferation assay protocol using Alamar Blue dye (stored at 4° C., use 20 ul per well) is described hereafter.
# c. Plate 4,000-5,000 cells per well in 100 μl of medium and seed into a 96-well plate according to the following plate layout. Add cell culture medium only to wells B10 to B12. Wells B1 to B9 have cells but no compound added.
# d. Add 100 μl of 2× drug dilution to each well in a concentration shown in the plate layout above. At the same time, add 100 μl of media into the control wells (wells B10 to B12). Total volume is 200 μl/well.
# e. Incubate four (4) days at 37° C., 5% CO2 in a humidified incubator.
# f. Add 20 μl Alamar Blue reagent to each well.
# g. Incubate for four (4) hours at 37° C., 5% CO2 in a humidified incubator.
# h. Record fluorescence at an excitation wavelength of 544 nm and emission wavelength of 590 nm using a microplate reader.
# In the assays, cells are cultured with a test compound for approximately four days, the dye then is added to the cells and fluorescence of […] dye is detected after approximately four hours. Different types of cells can be utilized in the assays (e.g., HCT-116 human colorectal carcinoma cells, PC-3 human prostatic cancer cells and MiaPaca human pancreatic carcinoma cells). Anti-proliferative effects of representative compounds are provided hereafter.
row,pIC50,SMILES
1,< 5.00,CCc1cccc(Nc2nc3cc(C(=O)O)ccc3c3sccc23)c1
2,< 5.00,O=C(NCc1cccnc1)c1cccc(Nc2nc3cc(-c4nnn[nH]4)ccc3c3sccc23)c1
3,< 5.00,CNC(=O)Cc1cccc(Nc2nc3cc(C(=O)O)ccc3c3sccc23)c1

# The next lines start with the compound.
row,SMILES,pIC50
1,Brc1cccc(Nc2nc3cc(-c4nnn[nH]4)ccc3c3sccc23)c1,< 5.00
2,O=C(O)c1ccc2c(c1)nc(Nc1cccc(I)c1)c1ccsc12,5.03
3,CN(C)C(=O)c1cccc(Nc2nc3cc(-c4nnn[nH]4)ccc3c3sccc23)c1,< 5.00
4,O=C(O)c1ccc2c(c1)nc(Nc1ccc3[nH]ccc3c1)c1ccsc12,< 5.00
5,C#Cc1cccc(Nc2nc3cc(-c4nnn[nH]4)ccc3c3sccc23)c1,< 5.00
6,O=C(O)c1ccc2c(c1)nc(Nc1ccc(F)c(Cl)c1)c1ccsc12,< 5.00
7,COc1cccc(Nc2nc3cc(C(=O)O)ccc3c3sccc23)c1,< 5.00
